Our source for the IC50 values is US8466170B2, “7-azaindole derivatives” (Merck Patent GmbH, priority 2008, dated 2013).

The term IC50 denotes the point on the concentration scale where inhibition reaches its midpoint.

Common to all, as to format: biochemical
The target in one assay is T1, SGK1 (Homo sapiens, UniProt O00141).
T1 sequence (O00141 1-431): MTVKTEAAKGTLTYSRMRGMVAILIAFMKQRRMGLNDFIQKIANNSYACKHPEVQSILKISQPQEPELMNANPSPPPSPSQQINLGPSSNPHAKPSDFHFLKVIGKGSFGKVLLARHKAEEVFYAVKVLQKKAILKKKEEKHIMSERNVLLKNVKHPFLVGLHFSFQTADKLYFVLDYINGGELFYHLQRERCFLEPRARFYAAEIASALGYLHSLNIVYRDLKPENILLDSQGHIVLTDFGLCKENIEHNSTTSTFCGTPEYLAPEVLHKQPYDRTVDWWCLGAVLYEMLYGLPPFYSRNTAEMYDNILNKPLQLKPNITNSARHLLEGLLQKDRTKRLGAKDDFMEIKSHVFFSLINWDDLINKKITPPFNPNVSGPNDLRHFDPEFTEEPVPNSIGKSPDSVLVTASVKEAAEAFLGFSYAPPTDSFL
Description: SGK1 enzyme inhibition (filter binding method). The note with it: Target SGK1. The text has this: The inhibition of SGK1 protein kinase can be determined in the filter binding method.

Another assay deals with T2, Met kinase (Homo sapiens, UniProt P08581).
T2 construct: 6His (N); purchased Upstate 14-526; host or cells: Sf21 insect cells (S. frugiperda), baculovirus
T2 sequence (P08581 974-1390 limits assumed): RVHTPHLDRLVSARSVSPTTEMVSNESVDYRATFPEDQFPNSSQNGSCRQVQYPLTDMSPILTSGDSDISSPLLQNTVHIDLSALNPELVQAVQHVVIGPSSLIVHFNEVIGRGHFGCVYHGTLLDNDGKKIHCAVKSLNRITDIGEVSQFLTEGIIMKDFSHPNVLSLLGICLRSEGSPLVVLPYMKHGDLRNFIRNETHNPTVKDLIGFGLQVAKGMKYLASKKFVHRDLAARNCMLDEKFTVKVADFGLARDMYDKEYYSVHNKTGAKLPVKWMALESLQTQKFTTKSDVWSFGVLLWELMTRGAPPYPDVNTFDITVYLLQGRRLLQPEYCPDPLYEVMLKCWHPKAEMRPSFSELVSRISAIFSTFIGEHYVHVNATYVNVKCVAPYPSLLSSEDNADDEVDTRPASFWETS
The assay is described as follows: Met kinase flashplate method. The note with it: Target Met kinase; read-out: Inhibition IC50 (enzyme). From the text: According to the manufacturer's data (Met, active, Upstate, catalogue No. 14-526), Met kinase is expressed for the purposes of protein production in insect cells (Sf21; S. frugiperda) and subsequent affinity-chromatographic purification as “N-terminal 6His-tagged” recombinant human protein in a baculovirus expression vector.
The kinase activity can be measured using various available measurement systems. In the scintillation proximity method (Sorg et al., J. of Biomolecular Screening, 2002, 7, 11-19), the flashplate method or the filter binding test, the radioactive phosphorylation of a protein or peptide as substrate is measured using radioactively labelled ATP (^32P-ATP, ^33P-ATP). In the case of the presence of an inhibitory compound, a reduced radioactive signal, or none at all, can be detected. Furthermore, homogeneous time-resolved fluorescence resonance energy transfer (HTR-FRET) and fluoroescence polarisation (FP) technologies can be used as assay methods (Sills et al., J. of Biomolecular Screening, 2002, 191-214).
The test plates used are 96-well Flashplate^R microtitre plates from Perkin Elmer (Cat. No. SMP200). […] The measurement of the bound radioactivity is carried out by means of a scintillation measuring instrument (Topcount NXT, Perkin-Elmer).
The full value used is the inhibitor-free kinase reaction. […] The inhibitory values (IC50) are determined using the RS1_MTS program. […]

A further assay addresses GSK3-beta (Homo sapiens, UniProt P49841). Description: Measurement of the GSK3-beta activity. Particulars: Target GSK3-beta; read-out: Inhibition IC50 (enzyme). On the procedure: The GSK3-beta activity can be measured analogously to WO 2008/078196. GSK3b (5-20 mU diluted in 20 mM MOPS ph 7.5, 1 mM EDTA, […], 0.01% Brj35, 5% glycerol, 0.1% beta-mercaptoethanol, 1 mg/ml of BSA) is measured against phospho-GS2 peptide ([…](PO4)EDEEE) in a final volume of 25.5 μl containing 8 mM MOPS ph 7.0, 0.2 mM EDTA, 20 μM phospho GS2 peptide, 10 mM magnesium acetate and 0.005 mM [33P-g-ATP] (50-1000 cpm/pmol) and is incubated at room temperature for 30 minutes. The assay is stopped by addition of 5 μl of 0.5 M (3%) orthophosphoric acid and is then harvested on P81 unifilter plates with a wash buffer (50 mM orthophosphoric acid).

In another assay the target is T3, SAPK3 (Homo sapiens, UniProt P53778).
T3 sequence (P53778 1-367): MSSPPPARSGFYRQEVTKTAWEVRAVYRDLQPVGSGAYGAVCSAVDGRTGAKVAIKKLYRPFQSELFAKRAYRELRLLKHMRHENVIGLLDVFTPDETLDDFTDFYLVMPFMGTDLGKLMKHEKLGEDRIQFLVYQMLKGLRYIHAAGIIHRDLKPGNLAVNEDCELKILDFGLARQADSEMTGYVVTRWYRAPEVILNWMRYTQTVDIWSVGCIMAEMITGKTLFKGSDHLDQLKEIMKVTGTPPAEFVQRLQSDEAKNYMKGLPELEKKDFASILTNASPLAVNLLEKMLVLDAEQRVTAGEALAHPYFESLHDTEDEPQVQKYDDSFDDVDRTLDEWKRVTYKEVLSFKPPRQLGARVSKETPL
The assay is described as follows: SAPK3 enzyme inhibition. Particulars: Target SAPK3.

A further assay has as its target CHK2 (Homo sapiens, UniProt O96017). The assay is described as follows: CHK2 enzyme inhibition. The note with it: Target CHK2.
The target in another assay is AMPK. Description: AMPK enzyme inhibition. The note with it: Target AMPK.
In the next assay the target is MKK1 (Homo sapiens, UniProt Q02750). The assay is described as follows: MKK1 enzyme inhibition. Particulars: Target MKK1.
MKK1, sequence (Q02750 whole entry, species assumed): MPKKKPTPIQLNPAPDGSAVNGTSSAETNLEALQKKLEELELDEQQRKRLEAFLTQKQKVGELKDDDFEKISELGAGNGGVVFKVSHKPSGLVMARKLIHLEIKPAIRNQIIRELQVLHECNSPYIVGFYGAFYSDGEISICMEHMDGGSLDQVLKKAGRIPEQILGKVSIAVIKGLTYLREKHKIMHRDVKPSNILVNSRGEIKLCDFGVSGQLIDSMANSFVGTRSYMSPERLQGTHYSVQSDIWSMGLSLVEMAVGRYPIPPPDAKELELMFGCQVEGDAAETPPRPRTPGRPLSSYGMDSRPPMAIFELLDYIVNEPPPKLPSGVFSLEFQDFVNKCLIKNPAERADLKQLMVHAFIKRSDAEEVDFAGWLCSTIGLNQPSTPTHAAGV

The structures appear in SMILES notation.

CHK2, sequence (O96017 whole entry, species assumed): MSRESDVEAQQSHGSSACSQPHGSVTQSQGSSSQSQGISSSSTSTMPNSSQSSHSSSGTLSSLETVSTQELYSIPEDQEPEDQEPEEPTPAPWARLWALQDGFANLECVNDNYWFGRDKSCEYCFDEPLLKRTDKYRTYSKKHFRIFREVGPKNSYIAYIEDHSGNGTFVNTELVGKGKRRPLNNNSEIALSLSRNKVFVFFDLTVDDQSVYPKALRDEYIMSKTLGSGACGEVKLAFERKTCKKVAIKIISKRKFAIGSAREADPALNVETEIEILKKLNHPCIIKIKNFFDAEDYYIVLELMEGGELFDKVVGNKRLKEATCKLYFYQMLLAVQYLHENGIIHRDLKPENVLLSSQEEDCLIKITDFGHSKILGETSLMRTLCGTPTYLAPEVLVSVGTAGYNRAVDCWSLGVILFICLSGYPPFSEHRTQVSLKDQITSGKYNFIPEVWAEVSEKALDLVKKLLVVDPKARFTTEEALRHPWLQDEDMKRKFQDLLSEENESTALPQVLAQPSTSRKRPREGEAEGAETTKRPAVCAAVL
GSK3-beta, sequence (P49841 whole entry, species assumed): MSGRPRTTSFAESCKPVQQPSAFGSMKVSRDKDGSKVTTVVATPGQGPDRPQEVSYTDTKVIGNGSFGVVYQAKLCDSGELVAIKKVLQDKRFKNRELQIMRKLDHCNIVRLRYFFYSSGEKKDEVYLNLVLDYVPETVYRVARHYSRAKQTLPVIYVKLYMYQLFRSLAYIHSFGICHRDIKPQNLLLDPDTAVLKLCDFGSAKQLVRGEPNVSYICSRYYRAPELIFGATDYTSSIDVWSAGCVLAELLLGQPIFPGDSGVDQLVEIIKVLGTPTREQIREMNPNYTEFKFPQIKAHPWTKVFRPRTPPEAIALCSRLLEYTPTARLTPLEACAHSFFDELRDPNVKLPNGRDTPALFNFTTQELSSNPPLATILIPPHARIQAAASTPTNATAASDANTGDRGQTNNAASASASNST

Consider `COc1cccc(CNc2nnc(-c3c[nH]c4ncc(-c5cn[nH]c5)cc34)o2)c1` [Compound A6], for which the IC50 on SGK1 was in the range of 100 to 10000 nM. Regarding `Fc1cccc(CNc2nnc(-c3c[nH]c4ncccc34)o2)c1` [Compound A5], the results for the IC50 on Met kinase and on SGK1 were 100 to 10000 nM and 1 to 100 nM, respectively. For `COc1cccc(CNc2nnc(-c3c[nH]c4ncccc34)o2)c1` [Compound A1, (3-methoxybenzyl)-[5-(1H-pyrrolo[2,3-b]pyridin-3-yl)-1,3,4-oxadiazol-2-yl]amine], the IC50 at GSK3-beta lay within 1 to 100 nM; against SAPK3, 100 to 10000 nM; at CHK2 it was 1 to 100 nM; against AMPK it was 1 to 100 nM; on SGK1, 1 to 100 nM; at MKK1, 1 to 100 nM. Compound `COc1cccc(CNc2nnc(-c3c[nH]c4ncccc34)n2N)c1` [Compound A10, N*3*-(3-methoxybenzyl)-5-(1H-pyrrolo[2,3-b]pyridin-3-yl)-1,2,4-triazole-3,4-diamine] showed an IC50 at SGK1 of 100 to 10000 nM. Take `c1ccc(Nc2nnc(-c3c[nH]c4ncccc34)o2)cc1` [Compound A2, phenyl-[5-(1H-pyrrolo[2,3-b]pyridin-3-yl)-1,3,4-oxadiazol-2-yl]amine]: on SGK1, the IC50 lay in the range of 100 to 10000 nM. Consider `COc1cccc(CNc2nnc(-c3c[nH]c4ncc(Br)cc34)o2)c1` [Compound A4], for which the IC50 on Met kinase is 100 to 10000 nM; at SGK1, 1 to 100 nM. In turn, `COc1cccc(CNc2nnc(-c3c[nH]c4ncccc34)n2Cc2ccccc2)c1` [Compound A9, [4-benzyl-5-(1H-pyrrolo[2,3-b]pyridin-3-yl)-4H-1,2,4-triazol-3-yl]-(3-methoxybenzyl)amine] had an IC50 on SGK1 of 100 to 10000 nM. `Nc1nnc(-c2c[nH]c3ncccc23)o1` [Compound A3, 5-(1H-pyrrolo[2,3-b]pyridin-3-yl)-1,3,4-oxadiazol-2-ylamine] showed an IC50 at SGK1 of 100 to 10000 nM.
